We go through 11 compounds from PubChem BioAssay (NCI).

Among the test systems are 786-0 renal; A498 renal; CAKI-1 renal; COLO 205 colon; HCT-15 colon; MCF7 breast; NCI/ADR-RES ovarian; OVCAR-5 ovarian; SK-MEL-2 melanoma; HOP-92 NSCLC.
Common to all, as to assay: NCI-60 cell line screen, 48 h

Values joined by “and” are separate entries in the source; they are usually repeats but may differ in a detail not shown here. Equal values may be shown once.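 Dose response: 5 concentrations. Exposure: 48 h. Format: 96-well plates. Endpoint: linear interpolation; highest concentration if not reached. Abbreviation: GI50, concentration required for 50% inhibition of growth. At the TGI there is no net growth.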 A value given as a limit tells only on which side of the number the result lay.

For `CCCN=C1Nc2ccccc2[C@@H]2N(C)c3ccccc3C(C)C[C@]12C` (some centres undefined), the TGI was 33.9 µM with 786-0 renal; 28.6 µM in the experiment on A498 renal; 84.5 µM in the experiment with CAKI-1 renal; 38 µM in the experiment with COLO 205 colon; 56.4 µM in the experiment on HCT-15 colon; 49.3 µM in the experiment with MCF7 breast. Moreover, the TGI with NCI/ADR-RES ovarian was found to be 52 µM; in the experiment with OVCAR-5 ovarian, 46.8 µM; in the experiment with SK-MEL-2 melanoma, 28.1 µM.

In the case of `COc1ccc(CNc2nc3cc(N)cc(N)c3nc2-c2ccccc2)cc1OC`, the GI50 with 786-0 renal was 15.7 µM; in the experiment with CAKI-1 renal it was 12.6 µM; in the experiment with COLO 205 colon it was 7.15 µM; in the experiment on HCT-15 colon, 28 µM; with HOP-92 NSCLC, 13.4 µM; in the experiment with MCF7 breast it was 20.9 µM. In addition, the GI50 was 17.7 µM in the experiment with NCI/ADR-RES ovarian, 20.6 µM in the experiment on OVCAR-5 ovarian and 13.9 µM with SK-MEL-2 melanoma. The TGI in the experiment with 786-0 renal was 33.5 µM; in the experiment with CAKI-1 renal it was 26.2 µM; in the experiment on COLO 205 colon, above 48.8 µM; in the experiment with HCT-15 colon, above 94.1 µM; in the experiment with HOP-92 NSCLC, 29.8 µM; in the experiment on MCF7 breast, above 63.2 µM. The TGI with NCI/ADR-RES ovarian was 58.2 µM; in the experiment with OVCAR-5 ovarian it was 38.9 µM; with SK-MEL-2 melanoma it was 49.5 µM.

For `Fc1ccc(Oc2nccc(-c3c(-c4ccc(F)cc4)ncn3C3CCNCC3)n2)cc1`, the GI50 was above 25 µM in the experiment on 786-0 renal; above 25 µM in the experiment with A498 renal; 20.5 µM in the experiment on CAKI-1 renal; above 25 µM in the experiment on COLO 205 colon; above 25 µM in the experiment on HCT-15 colon; above 25 µM in the experiment with MCF7 breast. For the same compound, the GI50 with NCI/ADR-RES ovarian, in the experiment on OVCAR-5 ovarian and with SK-MEL-2 melanoma was above 25 µM in each case. The TGI in the experiment with 786-0 renal, in the experiment on A498 renal, in the experiment on CAKI-1 renal, with COLO 205 colon, in the experiment on HCT-15 colon and in the experiment with MCF7 breast was above 25 µM each time. Also, the TGI in the experiment with NCI/ADR-RES ovarian, in the experiment on OVCAR-5 ovarian and in the experiment with SK-MEL-2 melanoma was above 25 µM each time.

`C=C1C(=O)O[C@@H]2C1C[C@@H](O)/C(C)=C/C/C=C(\C)CCC[C@H](C)[C@H]2OC(C)=O` (some centres undefined): the GI50 in the experiment on 786-0 renal is 18.7 µM; in the experiment on A498 renal, 54 µM; with CAKI-1 renal, 32.8 µM; in the experiment with COLO 205 colon, 40.4 µM; in the experiment with HCT-15 colon it was 22.2 µM; in the experiment on MCF7 breast, 20 µM. The GI50 is 32.3 µM in the experiment on NCI/ADR-RES ovarian, 56.3 µM in the experiment with OVCAR-5 ovarian and 18.2 µM in the experiment on SK-MEL-2 melanoma. For the same compound, the TGI was 34.3 µM in the experiment with 786-0 renal; above 100 µM with A498 renal; above 100 µM with CAKI-1 renal; above 100 µM in the experiment on COLO 205 colon; 51.9 µM in the experiment with HCT-15 colon; 46.2 µM with MCF7 breast. Besides, the values for the TGI in the experiment with NCI/ADR-RES ovarian, in the experiment on OVCAR-5 ovarian and with SK-MEL-2 melanoma were above 100 µM, above 100 µM and 67.9 µM, respectively.

As for `FC(F)(F)c1cccc(COCCN2CCN(Cc3cccc(C(F)(F)F)c3)CC2)c1`, the TGI with 786-0 renal came to 29.5 µM; with A498 renal it was 28.8 µM; in the experiment with CAKI-1 renal it was 31.3 µM; with COLO 205 colon it was 42.3 µM; in the experiment on HCT-15 colon, 31.5 µM; in the experiment on MCF7 breast, 31.7 µM. In addition, the TGI was 39.1 µM in the experiment with NCI/ADR-RES ovarian and 31.6 µM in the experiment on OVCAR-5 ovarian.

As for `Cc1ccccc1C(=O)C#Cc1cn(C2CC(O)C(CO)O2)c(=O)[nH]c1=O` (centres undefined), the TGI in the experiment with 786-0 renal, with CAKI-1 renal, with COLO 205 colon, with HCT-15 colon, with HOP-92 NSCLC and in the experiment on MCF7 breast was above 100 µM each time. The TGI in the experiment on NCI/ADR-RES ovarian and in the experiment on SK-MEL-2 melanoma was above 100 µM in each case.

Take `COc1ccc(/C=C\c2cc(OC)c(OC)c(OC)c2)cc1OC(=O)C(N)CCC(=O)O` (centres undefined): the GI50 in the experiment with 786-0 renal was 0.00706 µM; in the experiment on HOP-92 NSCLC, 0.00298 µM and 0.000791 µM; in the experiment with MCF7 breast, 0.00503 µM; in the experiment on NCI/ADR-RES ovarian, 0.000317 µM; with SK-MEL-2 melanoma, 7.35e-05 µM. For the same compound, the TGI with HOP-92 NSCLC is 0.0086 µM; with MCF7 breast it was above 100 µM; in the experiment with NCI/ADR-RES ovarian it was 0.608 µM; with OVCAR-5 ovarian, above 100 µM; in the experiment on SK-MEL-2 melanoma, above 100 µM.

Consider `O=C1/C(=C/c2ccc(O)c([N+](=O)[O-])c2)CCC/C1=C\c1ccc(O)c([N+](=O)[O-])c1`, for which the GI50 with 786-0 renal was 43.7 µM; with COLO 205 colon, 20.8 µM; in the experiment with HCT-15 colon, 9.77 µM; in the experiment with MCF7 breast, 15.8 µM; in the experiment with NCI/ADR-RES ovarian, 16.3 µM; in the experiment with OVCAR-5 ovarian, 21.9 µM. Moreover, the GI50 in the experiment on SK-MEL-2 melanoma is 13 µM. Also, the TGI in the experiment with 786-0 renal was 25.5 µM and > 100 µM; with A498 renal it was 13.1 µM; with CAKI-1 renal, 20.4 µM; with COLO 205 colon, 31.9 µM and 40.6 µM; in the experiment on HCT-15 colon, 36.5 µM and 37.2 µM; with MCF7 breast it was 50 µM and 63 µM. The TGI in the experiment on NCI/ADR-RES ovarian was 50 µM and 41.7 µM; in the experiment with OVCAR-5 ovarian it was 33.8 µM and 39.5 µM; in the experiment with SK-MEL-2 melanoma, 32.2 µM and 27.2 µM.

For `Nc1nc2cc(CNc3ccc(C(=O)O)cc3)ccc2nc1-c1ccccc1`, the TGI in the experiment on 786-0 renal, in the experiment on A498 renal, in the experiment on COLO 205 colon, with HCT-15 colon, in the experiment with MCF7 breast and in the experiment with NCI/ADR-RES ovarian was above 100 µM each time. Moreover, the TGI with OVCAR-5 ovarian and in the experiment on SK-MEL-2 melanoma was above 100 µM throughout.

`O=C(NC1CC1)c1ccc(-c2nc3ccc4[nH]ncc4c3c3c2CCCC3)cc1`: the GI50 with 786-0 renal is 2.11 µM; with A498 renal, 1.03 µM; with COLO 205 colon, 1.8 µM; with HCT-15 colon it was 1.58 µM; with HOP-92 NSCLC, 1.45 µM; in the experiment on MCF7 breast, 1.44 µM. The GI50 in the experiment on NCI/ADR-RES ovarian was 6.56 µM; with OVCAR-5 ovarian, 7.3 µM; in the experiment on SK-MEL-2 melanoma, 1.76 µM. For the same compound, the TGI was 12.3 µM in the experiment with 786-0 renal; 5.01 µM in the experiment on A498 renal; 10.4 µM in the experiment with COLO 205 colon; 13.9 µM with HCT-15 colon; 25.2 µM with HOP-92 NSCLC; 9.57 µM with MCF7 breast. Also, the TGI in the experiment on NCI/ADR-RES ovarian is above 50 µM; in the experiment with OVCAR-5 ovarian, 47.6 µM; with SK-MEL-2 melanoma it was 7.36 µM.

As for `O=c1[nH]c2nccnc2c2c([N+](=O)[O-])cccc12`, the TGI in the experiment with 786-0 renal, in the experiment on A498 renal, in the experiment with COLO 205 colon, in the experiment on HCT-15 colon, in the experiment with MCF7 breast and in the experiment with NCI/ADR-RES ovarian was above 100 µM each time. Further, the TGI with OVCAR-5 ovarian and in the experiment on SK-MEL-2 melanoma was above 100 µM each time.
